Data published in PubChem BioAssay AID179 (DTP/NCI, 2004).
Active and inactive are the calls of the source.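 How the source made its calls: active means compounds giving half or more protection of infected cells from virus-caused growth loss, again on retest; inactive means the rest.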 Where a SMILES comes first, the peptide text is derived from it. Bridges are numbered along the chain shown (N, C = ends). Roman numbers before positions name the chains, in order.

Tested on: CEM cells HIV-1 protection, formazan growth assay
Test: NCI AIDS Antiviral Assay
Conditions: for IC50: measured here: growth of uninfected CEM cells
Summary of the method: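 Protection of CEM cells against HIV-1 measured as cell growth via soluble formazan read-out, with five concentrations tested on both infected and uninfected cells; failure to protect may reflect toxicity.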

| Compound | EC50 [µM] | IC50 [µM] | outcome |
| --- | --- | --- | --- |
| O=c1ccn(Cc2ccccc2)c(=S)[nH]1 | > 200 | > 200 | – |
| Cc1cc(=O)oc2c3c(ccc12)OC(c1ccc(Br)cc1)CC3=O (centres undefined) | > 200 | 46.8 | – |
| CCOC(=O)C1C(=O)CN2CCc3c([nH]c4ccccc34)C12 (centres undefined) | > 29.5 | > 29.5 | – |
| CCCCCCCCCCOC(=O)c1cc[n+](C)cc1 | – | – | inactive |
| COC(=O)C1C(=O)CC2C(C(=O)OC)C(=O)CC12 (centres undefined) | > 234 | 105 | – |
| CC(C)=CCC/C(C)=C/CC/C(C)=C/Cc1c[nH]c2ccccc12 | > 6.17 | > 6.17 | – |
| CCCCCCCCCCCCCCCCCC1=Nc2cc(C)c(C)cc2NC(=O)C1 | > 100 | > 100 | – |
| O=C(Nc1cccc(C(F)(F)F)c1)C(Cl)=C(Cl)Cl | > 200 | 2.34 | – |
| CC1CN(CCO)CC(C)O1 (centres undefined) | > 1580 | > 1580 | – |
| CC(C)CC(NC(=O)C(Cc1ccc(O)cc1)NC(=O)C(CO)NC(=O)C(CCC(N)=O)NC(=O)C1CCCN1C(=O)C(CC(C)C)NC(=O)C(C)NC(=O)CNC(=O)C(N)CCC(N)=O)C(=O)NCC(=O)O (centres undefined) (H-QGALPQSYLG-OH; configuration not given here) | – | – | inactive |
| c1ccc([P+](CC2CCCO2)(c2ccccc2)c2ccccc2)cc1 (centres undefined) | > 200 | 2.82 | – |
| CC(NC(=O)C(N)CSSCC(N)C(=O)NC(C)C(=O)O)C(=O)O (stereo not drawn) (I: H-Cys-Ala-OH / II: H-Cys-Ala-OH; disulfide I:1-II:1; configuration not given here) | > 178 | > 178 | – |
| CC12CCC(C3NC(=S)NN=C31)C2(C)C (centres undefined) | > 302 | > 302 | – |
| O=C(O)CC1NC(/C(=C/c2ccccc2)NC(=O)c2ccccc2)OC1=O (centres undefined) | > 200 | 9.12 | – |
| COc1ccc(C(SCC(N)C(=O)O)(c2ccc(OC)cc2)c2ccc(OC)cc2)cc1 (centres undefined) | > 200 | 31.6 | – |
| COc1ccc(/C=C2\CCCc3ccccc3C2=O)cc1 | > 200 | 0.145 | – |
| CC/C(CC(=O)CCC(=O)Nc1ccccc1[N+](=O)[O-])=N/NC(=O)C[n+]1ccccc1 | > 25.7 | > 25.7 | – |

| Compound | EC50 [µM] | IC50 [µM] | outcome |
| --- | --- | --- | --- |
| Nc1nc(Cl)cc(Oc2ccc(Cl)cc2)n1 | > 200 | > 200 | – |
| N#CC1=C(Cl)NC(Cl)=C(C#N)C1c1c(Cl)cccc1Cl | 18.2 | > 100 | – |
| CC1(C)OC([C@H](O)CO)C([C@H]2NCCS2)O1 (some centres undefined) | > 200 | > 200 | – |
| Oc1ccc2ccccc2c1C=Nc1ccc(SSc2ccc(N=Cc3c(O)ccc4ccccc34)cc2)cc1 | > 200 | 30.2 | – |
| CC(NS(=O)(=O)c1ccccc1)C(=O)O (centres undefined) | – | – | inactive |
| Clc1cccc(-c2ccc[nH]2)c1 | > 200 | > 200 | – |
| Cc1c(O)c2ccccc2c2c1sc(NCCCN(CCO)CCO)[n+]2C | > 200 | 11.2 | – |
| CC12C3CC4C5CC(C(C53)[C@@H]1NCc1ccccc1)C42 (some centres undefined) | > 437 | 77.6 | – |
| O=c1cc(NCCCCCO)[nH]c(=O)[nH]1 | > 200 | > 200 | – |
| C1=C2/CC[C@H](Sc3ccccc3)C2C2(CCCCC/1)OCCO2 (some centres undefined) | > 200 | 38.9 | – |
| O=c1[nH]n(Cc2ccccc2)c2ccc([N+](=O)[O-])cc12 | > 200 | 25.7 | – |
| COc1cc(COC(=O)N2CC=CC2C(=O)O)c([N+](=O)[O-])cc1OC (centres undefined) | > 708 | > 708 | – |
| Cc1ccc2nc(N/N=C/c3sccc3C)cc(C)c2c1 | > 200 | 49 | – |
| CC(=O)OC(C)(C)CCC(=O)[C@](C)(O)[C@H]1[C@H](O)C[C@@]2(C)[C@@H]3CC=C4C(C)=C(OC5OC(CO)C(O)C(O)C5O)C(=O)C[C@@H]4[C@]3(C)C(=O)C[C@]12C (some centres undefined) | > 200 | > 200 | – |
| O=C1CCC[C@H]2O[C@@H](COCc3ccccc3)C[C@@H]12 | > 200 | 151 | – |
| COC(=O)/C(=C/c1ccc(OC)cc1)C(C(=O)O)=C1CCCC1 | > 158 | – | – |
| CC1(C)CCNc2ccccc2S1 | > 229 | > 229 | – |
